Patent US10952992B2, “Methods of treating intraocular pressure with activators of Tie-2” (Aerpio Pharmaceuticals, Inc., priority 2015, dated 2021)
Where “and” joins values, the source holds several entries; their conditions need not be identical. Equal entries are not always repeated. Structures can show the parent of a compound that is named as a salt.

Key:
[1] = Example 2 plasma concentrations and pharmacokinetics after topical ocular, subcutaneous, intravitreal administration; type: in vivo, male New Zealand White rabbits
Protocol: (§1) To measure the concentration of Compound 1 in plasma and ocular tissues following topical ocular, subcutaneous, and intravitreal administration, New Zealand White rabbits were administered Compound 1, and plasma and ocular samples were collected at pre-determined time points. Compound 1 formulations were prepared fresh on each day of dosing.
(§2) Ocular tissue samples from both eyes of each animal were collected and weights were recorded. Plasma and ocular tissue sample concentrations of Compound 1 were determined by LC-MS/MS.
New Zealand White rabbits weighing 2.5 to 3.5 kg were used on this study. Rabbits were housed one per cage. Animals were not fasted and only healthy animals with no ocular illness were used. Two rabbits per group were sacrificed at each of four ocular tissue sampling time points for a total of eight rabbits per group.
(§3) Animals were anesthetized for ocular (topical) and intravitreal dosing following the 12IA7 IACUC protocol. Each rabbit received a bolus dose of test formulation either via topical ocular administration 3 times daily on Days 1 and 2 (at 0, 6, and 12 hours), and once on Day 3 (at 0 hours) into both eyes; via intravitreal administration into both eyes once on Day 1 (at 0 hours); or via subcutaneous administration 2 times daily on Days 1 and 2 (at 0 and 8 hours) and once daily on Day 3 (at 0 hours). Doses were given within an approximately 1 hour window each day where applicable.
Each blood sample was collected on Day 3 post dose at pre-determined time points from the rabbits via an ear vessel and placed into chilled polypropylene tubes containing sodium heparin as an anticoagulant. Samples were spun by centrifuge at 4° C. and 3,000× g for 5 minutes. Samples were maintained chilled throughout processing. Each plasma sample was placed on dry ice and stored in a freezer at −60° C. to −80° C. pending bioanalysis.
(§4) An LC-MS/MS method was developed for the determination of Compound 1 in rabbit aqueous tissues (plasma, aqueous and vitreous humor) and solid ocular tissue samples. A pre-study standard curve was analyzed to determine the specificity, range, and lower limit of quantitation of the method. Plasma and tissue homogenate study samples were extracted and analyzed. All the samples were treated identically to the standards.
(§5) One eight-point standard curve was used in each analytical batch. To be accepted, each batch must have had at least five of eight standards with accuracy within ±20% of nominal, except at the lower limit of quantification (LLOQ), where ±25% was acceptable.
Pharmacokinetic parameters were calculated from the time course of the plasma concentration. The maximum plasma concentration (Cmax) and time to the maximum plasma drug concentration (Tmax) were the observed values for each concentration-time profiles. The area under the plasma drug concentration-time curve (AUClast, with last being from time 0 to the last quantifiable point) was calculated using the trapezoidal formula. The mean residence time MRTlast was calculated as a ratio of AUMClast (area under the first movement curve) to AUClast.

[2] = Example 2 vitreous humor concentrations; type: in vivo, male New Zealand White rabbits; conditions: for Average Peak Concentration, Vitreous Humor: solution
Protocol: as §1, §2, §3
On Day 1, for intravitreal administration, or on Day 3, for topical ocular and subcutaneous administration, at the appropriate ocular tissue collection time points, animals were euthanized and both eyes were enucleated immediately. Following enucleation, each eye was rinsed with phosphate-buffered saline. Ocular tissue samples from both eyes of each animal were collected at predetermined time points and weights were recorded. All the samples were frozen immediately on dry ice, and stored at −60° C. to −80° C. pending bioanalysis.
as §4, §5

[3] = Group 4: intravitreal solution, normalized by nominal dose 1.55 mg/kg
[4] = Group 1 (topical ocular 1.2 mg/eye), 0.5 hr
[5] = Group 1 (topical ocular 1.2 mg/eye), 1.0 hr
[6] = Group 1 (topical ocular 1.2 mg/eye), 2.0 hr
[7] = Group 1 (topical ocular 1.2 mg/eye), 4.0 hr
[8] = Group 2 (subcutaneous 5 mg/kg/dose, solution), 0.5 hr
[9] = Group 2 (subcutaneous 5 mg/kg/dose, solution), 1.0 hr
[10] = Group 2 (subcutaneous 5 mg/kg/dose, solution), 2.0 hr, BLOQ = below 0.2 ng/mL
[11] = Group 2 (subcutaneous 5 mg/kg/dose, solution), 4.0 hr, BLOQ = below 0.2 ng/mL
[12] = Group 4 (intravitreal 2.5 mg/eye, solution), 6.0 hr
[13] = Group 4 (intravitreal 2.5 mg/eye, solution), 24 hr
[14] = Group 4 (intravitreal 2.5 mg/eye, solution), 48 hr
[15] = Group 4 (intravitreal 2.5 mg/eye, solution), 72 hr

## COC(=O)N[C@@H](Cc1ccccc1)C(=O)N[C@@H](Cc1ccc(NS(=O)(=O)O)cc1)c1csc(-c2cccs2)n1 [Compound 1 sodium salt]
[1]; Group 4: intravitreal 2.5 mg/eye (~1.55 mg/kg), 10% HPβCD + 2% dextrose solution, 72.0 hr
  plasma Conc., individual rabbit: 0.215 ng/mL and 0.333 ng/mL
[1]; Group 4: intravitreal 2.5 mg/eye (~1.55 mg/kg), 10% HPβCD + 2% dextrose solution, listed as Compound 1 (sodium salt)
  plasma tmax: 3 h
[1]; [3]
  plasma AUClast, dose normalized: 615 ± 58.8 kg·ng·h/mL/mg and 615 kg·ng·h/mL/mg
  plasma AUC∞, dose normalized: 617 kg·ng·h/mL/mg
[1]; intravitreal administration
  mean plasma AUClast between the two dose formulations: comparable
  mean plasma Cmax, sodium salt solution compared to free acid suspension: approximately 2 fold
[1]; intravitreal administration, up to twenty-four hours post-administration
  plasma concentrations vs free acid (FIG. 5): slightly higher plasma concentrations as compared to the free acid
[1]; subcutaneous administration
  mean plasma AUClast, sodium salt solution compared to free acid suspension: approximately 2 fold
  mean plasma Cmax, sodium salt solution compared to free acid suspension: approximately 3 fold
[1]; subcutaneous administration, postdose
  mean plasma Tmax: 0.25 h
[1]; subcutaneous administration, up to one hour post-administration
  plasma concentrations vs free acid (FIG. 4): generally increased plasma concentrations as compared to the free acid
[1]; topical ocular administration, 4 hour mark
  plasma concentration (FIG. 3): increase in Compound 1 plasma concentration
[2]; [4]
  vitreous humor Average Conc.: 0.61 ng/g
  vitreous humor Conc. OD: 0.549 ng/mL
  vitreous humor Conc. OS: 0.528 ng/mL and 0.507 ng/mL
[2]; [5]
  vitreous humor Average Conc.: 2.09 ng/g
  vitreous humor Conc. OD: 1.97 ng/mL and 3.28 ng/mL
[2]; [6]
  vitreous humor Average Conc.: 3.33 ng/g
  vitreous humor Conc. OD: 1.14 ng/mL
  vitreous humor Conc. OS: 0.950 ng/mL
[2]; [7]
  vitreous humor Average Conc.: 4.01 ng/g
  vitreous humor Conc. OD: 1.09 ng/mL and 0.551 ng/mL
  vitreous humor Conc. OS: 2.20 ng/mL
[2]; Group 1: topical ocular 0.70 mg/kg/dose
  Average Peak Concentration, Vitreous Humor: 0.61 ng/g
[2]; [8]
  vitreous humor Average Conc.: 0.83 ng/g
  vitreous humor Conc. OD: 0.77 ng/mL and 0.537 ng/mL
  vitreous humor Conc. OS: 1.03 ng/mL and 0.981 ng/mL
[2]; [9]
  vitreous humor Average Conc.: 0.45 ng/g
  vitreous humor Conc. OD: 0.252 ng/mL and 0.442 ng/mL
[2]; [10]
  vitreous humor Conc. OD: BLOQ
  vitreous humor Conc. OS: BLOQ
[2]; [11]
  vitreous humor Conc. OD: BLOQ
  vitreous humor Conc. OS: BLOQ
[2]; Group 2: subcutaneous 5 mg/kg/dose
  Average Peak Concentration, Vitreous Humor: 0.83 ng/g
[2]; [12]
  vitreous humor Average Conc.: 988500 ng/g
  vitreous humor Conc. OD: 1450000 ng/mL and 1480000 ng/mL
  vitreous humor Conc. OS: 592000 ng/mL and 432000 ng/mL
[2]; [13]
  vitreous humor Average Conc.: 349500 ng/g
  vitreous humor Conc. OD: 438000 ng/mL and 406000 ng/mL
  vitreous humor Conc. OS: 295000 ng/mL and 259000 ng/mL
[2]; [14]
  vitreous humor Average Conc.: 82000 ng/g
  vitreous humor Conc. OD: 85200 ng/mL and 68600 ng/mL
  vitreous humor Conc. OS: 82300 ng/mL and 91900 ng/mL
[2]; [15]
  vitreous humor Average Conc.: 13450 ng/g
  vitreous humor Conc. OD: 14500 ng/mL and 11700 ng/mL
  vitreous humor Conc. OS: 13500 ng/mL and 14100 ng/mL
[2]; Group 4: intravitreal 1.55 mg/kg/dose
  Average Peak Concentration, Vitreous Humor: 988500 ng/g
[2]; intravitreal administration, 6 hr post-dosing
  vitreous humor concentrations vs free acid (FIG. 11): higher vitreous humor concentrations
[2]; subcutaneous administration, 0.5 hr and 1 hr post-dosing
  vitreous humor concentrations vs free acid (FIG. 10): increased vitreous humor concentrations
[2]; topical ocular administration
  vitreous humor concentrations over time (FIG. 9): increased vitreous humor concentrations
